Laboratory results: patent publication US20090232853A1, “TREATMENT OF LAMINITIS” (priority 2005, published 2009)

Assays:
[1] = system: equine digital blood vessels; assay: isolated blood vessel work, isometric tension recording
Source text: The coronary band veins and the distal artery were dissected from equine hind limbs obtained from abattoir collections (animals euthanased for non related reasons), cut into rings of approximately 3 mm in length and prepared for isometric tension recording—a method established in the laboratory for looking at endothelium intact responses of equine digital.

[2] = system: Tyrosine decarboxylase (TDC); assay: inhibition of decarboxylase activity; format: biochemical; settings: tyrosine to tyramine by TDC
Source text: Tyrosine decarboxylase (TDC) decarboxylases tyrosine to tyramine.

ponies = assay: effect of dietary fructan carbohydrates on normal and laminitic ponies; format: in vivo
Source text: Eleven adult, native breed ponies were used in the diet study; 5 normals and 6 predisposed to laminitis (asymptomatic at the time of the study). A basal hay diet was fed for 2 weeks, prior to the inclusion of inulin (sourced from chicory root; 3 g/kg body weight per day), fed in 3 equal feeds. The daily forage ration also included ⅔ hay, by weight, and ⅓ Readigrass® (to act as a source of amino acids). Fecal and blood samples were taken during both diets to measure amine concentration (by HPLC and LC-MS, respectively) and fecal pH.

[3] = system: streptococci and lactobacilli in equine caecal contents; assay: in vitro model of carbohydrate overload: enumeration of caecal streptococci and lactobacilli; design: species or system horses; settings: virginiamycin 1 mg/100 ml, with corn starch or inulin
Procedure: Use of an in vitro model of carbohydrate overload to study the change in populations of caecal streptococci and lactobacilli and to establish whether certain species of these bacteria were capable of producing vasoactive amines from amino acids.
Caecal contents from 10 horses were divided into aliquots and incubated anaerobically with either corn starch or inulin (fructan; both 1 g 100 ml). Samples were taken at 6 h intervals over a 24 h period for enumeration of streptococci, lactobacilli and Gram-negative anaerobes by a dilution method onto standard selective growth media. […]
Effects of carbohydrate overload on numbers of (a) streptococci, (b) lactobacilli and (c) Gram-negative anaerobes in equine caecal contents incubated anaerobically in vitro. […] Bacterial numbers in each aliquot at 6 h intervals were determined by serial dilution of caecal contents in sterile RPS plated onto selective growth medium. […]
Effects of virginiamycin and calcium hydrogen-phosphate on numbers of Streptococcus and Lactobacillus spp. in equine caecal contents induced by incubation with starch or inulin. […] Bacterial numbers were measured at 0 and 24 h, expressed as CFU/ml, and the magnitude of the change over this period was calculated by dividing the number of bacteria present at 24 h by the initial figure (geometric mean±s.e.m. of estimates taken from 4 separate experiments).

[4] = inulin diet vs basal hay diet, FIG. 12

**Q.** What does the source list for `CC(=O)N[C@@H](CS)C(=O)O` [NAC, N-acetyl cysteine]?
**A.** relaxation of isolated digital blood vessels ([1]; antioxidant added to the medium, vs control, FIG. 14): increase the relaxation above that of the control; contraction of digital veins in response to vasoactive amines ([1]; pre incubation in the medium, response to Tryptamine, FIG. 15): reduced contraction

**Q.** For `NC(CO)C(=O)NNCc1ccc(O)c(O)c1O` (stereo not drawn) [benserazide], which production of tyramine [2] is on record?
**A.** The production of tyramine was “inhibited”.

**Q.** How did the production of tyramine [2] turn out when `C[C@@](Cc1ccc(O)c(O)c1)(NN)C(=O)O` [carbidopa] was run?
**A.** Its production of tyramine is “inhibited”.

**Q.** With `O=c1c(-c2ccc(O)cc2)coc2cc(O)cc(O)c12` [genestin] as the compound, how does the “reduction of contraction of digital veins in response to vasoactive amines” value ([1]; flavonoid added to the medium, response to Tryptamine, FIG. 15) read?
**A.** The value was 30%.

**Q.** What does the source list for inulin?
**A.** signs of laminitis (ponies; inulin 3 g/kg body weight per day in 3 feeds, 5 normal and 6 laminitis-predisposed ponies): No animal showed any signs of laminitis; increase in tryptamine concentration (ponies; [4]): 58.6%; increase in tyramine concentration (ponies; [4]): 23.3%

**Q.** With virginiamycin as the compound, how does the “effect on carbohydrate-induced increases in numbers of streptococci and lactobacilli” value [3] read?
**A.** Its value is “abrogated”.
